Source: patent US10669284B2, “Fused thiazolopyrimidine derivatives as MNKS inhibitors” (LIFEARC, priority 2015, dated 2020)
Where two headings read alike, the source gives them in different places.

Legend:
Full-length human MNK2 = target: T1, Full-length human MNK2 (Homo sapiens, UniProt Q9HBH9, T379D); assay: MNK2 biochemical IC50 assay (Caliper Mobility Shift Assay)
T1 construct: GST (N); purchased Carna Biosciences 02-146; host or cells: baculovirus expression system
Excerpt: (§1) The phosphorylated peptide product and unphosphorylated peptide substrate were detected using a Caliper Mobility Shift Assay using the Caliper LabChip EZ Reader II.
(§2) The Caliper Mobility Shift Assay technology is based on the utilisation of a microfluidic chip to measure the conversion of a fluorescent non-phosphorylated peptide substrate to phosphorylated product by electrophoresis separation of substrate and product and detection via Laser-induced fluorescence. The LabChip EZ Reader software calculates the relative heights of substrate and product peaks and reports the peak ratio (Product peak(P) divided by the sum of Product peak(P) and Substrate peak(S)). The percent-conversion is calculated as 100×[(P/(P+S)]. All assays were set up to run in the linear phase with a maximum of 10 percent substrate conversion.
(§3) These were N-terminal GST fusion proteins expressed in baculovirus expression system and purified by glutathione sepharose affinity chromatography. […] All other assay reagents were sourced from Sigma.
(§4) The assay incubation times were adjusted depending on the concentration of ATP used. Assays were performed at low (50 uM) and high (1 mM) ATP. The low ATP values were selected to run at Km conditions for the standard assay to allow relative potencies to be compared across other kinases. The high ATP concentration was selected as representative of cellular ATP concentrations, and for an indication of ATP competition, where a significant shift (greater than half log) in apparent potency would be expected compared to Km conditions. All IC50 values reported are the average of at least two independent experiments.
Reactions were performed as above using 10 nM MNK2 in the assay. Standard assays contained 50 uM ATP and high concentration ATP assays contained 1 mM ATP. […] All other conditions were the same.

Full-length human MNK1 = target: T2, Full-length human MNK1 (Homo sapiens, UniProt Q9BUB5, T385D); assay: MNK1 biochemical IC50 assay (Caliper Mobility Shift Assay)
T2 construct: GST (N); purchased Carna Biosciences 02-145; host or cells: baculovirus expression system
Excerpt: as §1, §2, §3
Compounds were serially diluted in DMSO to generate a 10-point half log dilution curve with a final top concentration of 100 uM in the assay. […] Compounds were pre-incubated with enzyme and peptide in reaction buffer for 30 mins prior to addition of ATP to initiate the reaction. Final assay concentrations were 3 nM MNK1, 2 uM peptide substrate, 50 uM ATP, 50 mM Hepes pH 7.0, 0.01% BSA, 10 mM MgCl2, 1 mM dithiothrietol.
as §4

[1] = tested on: phosphorylation of eIF4E at ser209 in MV4.11 cell line; assay: MNK cellular activity phospho-eIF4E detection assay (Alphascreen Surefire); format: cell-based; conditions: Homo sapiens; MV4.11 cell line, phospho-eIF4E (ser209) Alphascreen Surefire; read-out: P(IC50) elF4E (converted)
Description: The assay detection is based on the formation of sandwich antibody complexes coupled to donor and acceptor beads. Excitation at 680 nm causes the transfer of a singlet oxygen species between donor and acceptor beads when they are in close proximity by binding to the analyte ([…]), which results in the emission of light at 520-620 nm.
Cells were then lysed and the Alphascreen Surefire protocol followed according to manufacturer's recommendations. 8 ul Acceptor beads (1:50 dilution in kit activation buffer) was added to lysate, shaken 150 rpm for 2 min and incubated for 1.5 hr at room temperature. 3 ul Donor beads (1:20 dilution in kit dilution buffer) were then added, shaken 150 rpm for 2 min and incubated for a further 1.5 hr at room temperature after which the plates were read on Pherastar FS using Alphascreen optic module.
Data were normalised relative to untreated DMSO only controls and curves repeated in duplicate within experiments. Data reported are averages of at least 2 independent experiments.

[2] = read-out: P(IC50) MNK2 (converted)
[3] = read-out: P(IC50) MNK1 (converted)

T1 sequence (Q9HBH9 whole entry T379D): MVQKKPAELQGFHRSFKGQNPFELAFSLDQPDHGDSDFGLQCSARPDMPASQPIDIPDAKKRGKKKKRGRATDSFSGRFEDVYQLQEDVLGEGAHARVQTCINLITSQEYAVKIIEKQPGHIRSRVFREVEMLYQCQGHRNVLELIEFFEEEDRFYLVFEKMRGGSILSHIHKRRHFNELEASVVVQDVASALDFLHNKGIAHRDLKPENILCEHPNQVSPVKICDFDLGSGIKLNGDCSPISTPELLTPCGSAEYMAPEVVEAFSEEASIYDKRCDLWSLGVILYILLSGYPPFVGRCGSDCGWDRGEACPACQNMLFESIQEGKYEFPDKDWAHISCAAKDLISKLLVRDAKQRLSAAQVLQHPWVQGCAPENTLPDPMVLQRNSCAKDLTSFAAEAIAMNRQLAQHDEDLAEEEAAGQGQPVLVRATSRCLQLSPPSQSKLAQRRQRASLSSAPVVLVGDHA
T2 sequence (Q9BUB5 1-424 isoform Q9BUB5-2 T344D): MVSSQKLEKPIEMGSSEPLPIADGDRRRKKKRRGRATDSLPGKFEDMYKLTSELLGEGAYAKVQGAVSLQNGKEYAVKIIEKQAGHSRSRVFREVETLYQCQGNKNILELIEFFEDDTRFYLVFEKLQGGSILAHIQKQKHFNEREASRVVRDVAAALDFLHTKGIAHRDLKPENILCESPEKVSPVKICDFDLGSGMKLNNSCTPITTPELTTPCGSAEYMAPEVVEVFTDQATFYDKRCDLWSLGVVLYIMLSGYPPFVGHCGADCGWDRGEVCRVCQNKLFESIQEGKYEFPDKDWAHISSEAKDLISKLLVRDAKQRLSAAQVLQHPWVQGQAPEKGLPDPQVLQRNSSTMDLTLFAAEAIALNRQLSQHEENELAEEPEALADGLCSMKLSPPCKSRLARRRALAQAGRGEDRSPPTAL

IC50 (Full-length human MNK2; [2]) [nM]	IC50 (Full-length human MNK1; [3]) [nM]	IC50 [1] [nM]	IC50 (Full-length human MNK2) [nM]	IC50 (Full-length human MNK1) [nM]	SMILES
6.31	6.31	39.8	–	–	CC1(CO)CN(c2ncnc3sc(C(=O)NCC4CCNCC4)nc23)c2ccccc21 (stereo not shown) [Example 140]
3.16	1.58	2	–	–	O=C(NC1CCOCC1)c1nc2c(N3CC4(CC4)c4cc(F)ccc43)ncnc2s1 [Example 107, 7-(5′-fluorospiro[cyclopropane-1,3′-indoline]-1′-yl)-N-tetrahydropyran-4-yl-thiazolo[5,4-d]pyrimidine-2-carboxamide]
31.6	50.1	50.1	–	–	O=C(NC1CCOCC1)c1nc2c(-n3ccc4ccccc43)ncnc2s1 [Example 117, 7-Indol-1-yl-N-tetrahydropyran-4-yl-thiazolo[5,4-d]pyrimidine-2-carboxamide]
–	–	–	2	2	O=C(NCCCN1CCCC1)c1nc2c(N3CCc4cc(F)ccc43)ncnc2s1 [Example 68]
1580	–	631	–	–	O=C(NCC1CCNCC1)c1nc2c(Nc3ccc(F)cc3OC(F)(F)F)ncnc2s1 [Example 59, 7-[4-fluoro-2-(trifluoromethoxy)anilino]-N-(4-piperidylmethyl)thiazolo[5,4-d]pyrimidine-2-carboxamide]
631	–	501	–	–	CC(C)Oc1ccc2c(c1)CCN2c1ncnc2sc(C(=O)NC3CCOCC3)nc12 [Example 116, 7-(5-Isopropoxyindolin-1-yl)-N-tetrahydropyran-4-yl-thiazolo[5,4-d]pyrimidine-2-carboxamide]
3.16	3.16	–	–	–	O=C(NCC1CCNCC1)c1nc2c(N3CCc4cc(Cl)ccc43)ncnc2s1 [Example 168, 7-(5-Chloroindolin-1-yl)-N-(4-piperidylmethyl)thiazolo[5,4-d]pyrimidine-2-carboxamide]

Second part, the compound before the results:

SMILES	IC50 (Full-length human MNK2; [2]) [nM]	IC50 (Full-length human MNK1; [3]) [nM]	IC50 [1] [nM]	IC50 (Full-length human MNK2) [nM]	IC50 (Full-length human MNK1) [nM]
CCOc1cc(F)ccc1Nc1ncnc2sc(C(=O)NCCCN(C)C)nc12 [Example 24, N-[3-(Dimethylamino)propyl]-7-(2-ethoxy-4-fluoro-anilino)thiazolo[5,4-d]pyrimidine-2-carboxamide]	100	100	79.4	–	–
CC(=O)Nc1ccc2c(c1)CCN2c1ncnc2sc(C(=O)NC3CCN(C)CC3)nc12 [Example 46, 7-[5-(Acetylamino)-2,3-dihydro-1H-indol-1-yl]-N-(1-methylpiperidin-4-yl)[1,3]thiazolo[5,4-d]pyrimidine-2-carboxamide]	200	501	100	–	–
CC(C)Oc1cc(F)ccc1Nc1ncnc2sc(C(=O)N3CCC(CN(C)C)CC3)nc12 [Example 35, {4-[(dimethylamino)methyl]piperidin-1-yl}(7-{[4-fluoro-2-(propan-2-yloxy)phenyl]amino}[1,3]thiazolo[5,4-d]pyrimidin-2-yl)methanone]	200	158	316	–	–
CN(C)CCCNC(=O)c1nc2c(N3CC(C)(C)c4ccccc43)ncnc2s1 [Example 25, N-[3-(Dimethylamino)propyl]-7-(3,3-dimethylindolin-1-yl)thiazolo[5,4-d]pyrimidine-2-carboxamide]	–	6.31	–	3.98	–
CN(C)CCCNC(=O)c1nc2c(N3CCc4ccccc43)ncnc2s1 [Example 27, N-[3-(Dimethylamino)propyl]-7-indolin-1-yl-thiazolo[5,4-d]pyrimidine-2-carboxamide]	–	10	–	7.94	–
CO[C@H]1CCCC[C@@H]1Oc1cc(F)ccc1Nc1ncnc2sc(C(=O)NCCCN(C)C)nc12 [Example 21]	1260	–	316	–	–
CC(C)Oc1cc(F)ccc1Nc1ncnc2sc(C(=O)NCCN3CCNCC3)nc12 [Example 9, 7-(4-fluoro-2-isopropoxy-anilino)-N-(2-piperazin-1-ylethyl)thiazolo[5,4-d]pyrimidine-2-carboxamide]	–	50.1	–	31.6	–
